This is an account of results in US10202376B2, “Heterocyclic compound” (Takeda Pharmaceutical Company Limited, priority 2014, dated 2019).

Each structure is given as a SMILES string.

T2 sequence (Q13224 27-1484, other chains not shown): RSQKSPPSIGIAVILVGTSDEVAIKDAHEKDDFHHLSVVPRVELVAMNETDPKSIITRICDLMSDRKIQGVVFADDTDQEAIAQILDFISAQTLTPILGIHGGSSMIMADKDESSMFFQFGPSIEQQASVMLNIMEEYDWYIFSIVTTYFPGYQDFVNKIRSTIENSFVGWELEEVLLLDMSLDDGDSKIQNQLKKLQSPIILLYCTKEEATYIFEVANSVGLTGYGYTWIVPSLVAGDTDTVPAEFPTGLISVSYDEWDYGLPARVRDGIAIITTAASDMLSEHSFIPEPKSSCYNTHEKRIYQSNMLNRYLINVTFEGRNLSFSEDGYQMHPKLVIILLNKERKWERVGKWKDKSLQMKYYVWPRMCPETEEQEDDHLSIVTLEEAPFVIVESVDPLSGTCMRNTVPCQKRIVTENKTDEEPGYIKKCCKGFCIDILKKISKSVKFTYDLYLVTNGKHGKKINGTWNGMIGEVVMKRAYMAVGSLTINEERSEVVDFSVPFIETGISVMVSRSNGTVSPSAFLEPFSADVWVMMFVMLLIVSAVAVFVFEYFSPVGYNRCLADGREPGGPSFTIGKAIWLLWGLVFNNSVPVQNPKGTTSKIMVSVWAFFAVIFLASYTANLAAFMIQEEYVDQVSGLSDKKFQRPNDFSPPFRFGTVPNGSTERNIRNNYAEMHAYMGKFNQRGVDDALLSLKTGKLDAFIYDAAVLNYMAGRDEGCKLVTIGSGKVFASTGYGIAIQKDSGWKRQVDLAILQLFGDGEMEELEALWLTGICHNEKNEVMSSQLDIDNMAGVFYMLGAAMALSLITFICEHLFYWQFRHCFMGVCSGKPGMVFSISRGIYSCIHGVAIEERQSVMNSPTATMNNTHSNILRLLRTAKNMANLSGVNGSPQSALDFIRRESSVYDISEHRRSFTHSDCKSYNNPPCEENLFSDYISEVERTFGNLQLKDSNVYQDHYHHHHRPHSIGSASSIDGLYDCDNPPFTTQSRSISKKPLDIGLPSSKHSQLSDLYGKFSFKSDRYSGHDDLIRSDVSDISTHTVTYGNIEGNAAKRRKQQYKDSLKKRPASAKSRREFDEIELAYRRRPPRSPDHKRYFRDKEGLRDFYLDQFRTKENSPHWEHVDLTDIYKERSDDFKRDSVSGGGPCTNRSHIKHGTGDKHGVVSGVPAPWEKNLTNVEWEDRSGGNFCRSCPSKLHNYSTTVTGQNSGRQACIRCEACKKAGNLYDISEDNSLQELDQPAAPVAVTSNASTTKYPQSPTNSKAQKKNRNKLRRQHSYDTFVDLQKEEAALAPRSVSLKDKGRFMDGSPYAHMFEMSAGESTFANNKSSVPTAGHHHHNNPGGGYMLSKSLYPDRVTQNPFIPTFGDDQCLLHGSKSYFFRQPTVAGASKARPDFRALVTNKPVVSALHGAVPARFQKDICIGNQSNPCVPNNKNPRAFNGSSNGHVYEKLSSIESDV

For one assay, the target named is T1, Human GRIN1 and human GRIN2B expressing HEK293 cells (Homo sapiens, UniProt Q13224).
T1 construct: host or cells: HEK293
T1 sequence (Q13224 27-1484, other chains not shown): as above
As to the kind of experiment: NR2B Ca2+ flux assay. The settings on record: 10 μM test compound, glutamic acid/glycine stimulated Fluo-4 fluorescence, FLIPR, read-out: inhibitory rate (@10 μM). In kind it is cell-based. As to the method: Experimental Example 1 NR2B Ca^2+ Flux Assay
Human GRIN1 and human GRIN2B expressing HEK293 cells were purchased from ChanTest. The cells were cultured in a DMEM/F-12 (COSMO BIO, 10-092-CM) medium added with 10% FBS (fetal bovine serum, AusGene), 100 units/mL penicillin, 100 μg/mL streptomycin, 500 μg/mL neomycin, 100 μg/mL Zeocin, 5 μg/mL Blasticidin at 37° C., 5% CO2. The cells were detached from flask with trypsin the day before the assay, suspended in a seeding medium (DMEM (Invitrogen, 31053) added with 10% FBS, 100 units/mL penicillin, 100 μg/mL streptomycin) at 8×10^5 cells/mL, seeded by 25 μL per well in a 384-well plate (Falcon, 356663) at 20000 cells/well, and cultured overnight in an incubator. On the day of the assay, tetracycline (Wako Pure Chemical Industries, Ltd., 209-16561) was diluted with the seeding medium at 2 μg/mL, added at […] to the plate seeded with the cells, and cultured for 2 hr in an incubator. Thereafter, the medium was removed, and the cells were washed with 50 μL/well assay buffer (137 mM NaCl, 4 mM KCl, 1.8 mM CaCl2, 10 mM HEPES (pH 7.2), 10 mM Glucose, 0.1% BSA). Then, a loading buffer (assay buffer added with 2.5 uM Fluo-4AM, 2 mM Amaranth, 1 mM Tartrazine) was added at 25 μL/well, and loading was performed in the incubator for 30 min, and at room temperature for 15 min. A test compound (25 μL) was added, and the cells were stood for 15 min at room temperature. Using FLIPR (Molecular Devices), 25 μL of an assay buffer containing […], 30 μM glycine was added, and the fluorescence signal was measured every 3 seconds for 5 min. The inhibitory activity was calculated as a relative activity value that inhibits 100% of the cumulative value of the fluorescence value of a well added with a buffer free of glutamic acid, glycine, relative to the cumulative value of the fluorescence value of each well.
In the case of `O=C(Cc1cccc2nccn12)Nc1ccc2c(c1)CCO2` [Example 67, N-(2,3-dihydro-1-benzofuran-5-yl)-2-(imidazo[1,2-a]pyridin-5-yl)acetamide], the inhibition at 10 µM amounted to 78%.

For `O=C(Cc1cccc2nccn12)Nc1ccc(OC(F)(F)F)cc1` [Example 5, 2-(imidazo[1,2-a]pyridin-5-yl)-N-(4-(trifluoromethoxy)phenyl)acetamide], the inhibition at 10 µM was found to be 93%.

Take `O=C(Cc1cccc2nccn12)Nc1ccc(F)cc1F` [Example 27, N-(2,4-difluorophenyl)-2-(imidazo[1,2-a]pyridin-5-yl)acetamide]: the inhibition at 10 µM is 66%.

For the compound `Cc1ccc(NC(=O)Cc2cccc3nccn23)cc1` [Example 35, 2-(imidazo[1,2-a]pyridin-5-yl)-N-(4-methylphenyl)acetamide], the inhibition at 10 µM was 90%.

Take `CCc1ccc2nccn2c1CC(=O)Nc1ccc(C(F)(F)F)cc1` [Example 81, 2-(6-ethylimidazo[1,2-a]pyridin-5-yl)-N-(4-(trifluoromethyl)phenyl)-acetamide]: the inhibition at 10 µM was 95%.

On to `N#Cc1ccc(NC(=O)Cc2cccc3nccn23)cc1` [Example 31, N-(4-cyanophenyl)-2-(imidazo[1,2-a]pyridin-5-yl)acetamide], for which the inhibition at 10 µM came out at 78%.

Consider `O=C(Cc1cccc2nccn12)Nc1ccc(C(F)(F)F)cc1Cl` [Example 37, N-(2-chloro-4-(trifluoromethyl)phenyl)-2-(imidazo[1,2-a]pyridin-5-yl)acetamide], for which the inhibition at 10 µM amounted to 81%.

Take `O=C(Cc1cccc2nccn12)Nc1ccc(C(F)F)cc1` [Example 69, N-(4-(difluoromethyl)phenyl)-2-(imidazo[1,2-a]pyridin-5-yl)acetamide]: the inhibition at 10 µM came out at 87%.

As to `Cc1cnc2cccc(CC(=O)Nc3ccc(C(F)(F)F)cc3)n12` [Example 20, 2-(3-methylimidazo[1,2-a]pyridin-5-yl)-N-(4-(trifluoromethyl)phenyl)acetamide], the inhibition at 10 µM turned out to be 74%.

Turning to `O=C(Cc1cccc2nccn12)Nc1ccc(OC(F)(F)F)nc1` [Example 63, 2-(imidazo[1,2-a]pyridin-5-yl)-N-(6-(trifluoromethoxy)-pyridin-3-yl)acetamide], the inhibition at 10 µM worked out at 85%.

As to `CC(C(=O)Nc1ccc(C(F)(F)F)cc1)c1cccc2nccn12` (stereo not shown) [Example 93, 2-(imidazo[1,2-a]pyridin-5-yl)-N-(4-(trifluoromethyl)phenyl)-propanamide], the inhibition at 10 µM worked out at 89%.

For the compound `Cc1cn2c(CC(=O)Nc3ccc(OC(F)(F)F)cc3)cccc2n1` [Example 85, 2-(2-methylimidazo[1,2-a]pyridin-5-yl)-N-(4-(trifluoromethoxy)-phenyl)acetamide], the inhibition at 10 µM stood at 91%.

With `O=C(Cc1cccc2nccn12)Nc1ccc(C2CC2)c(F)c1` [Example 12, N-(4-cyclopropyl-3-fluorophenyl)-2-(imidazo[1,2-a]pyridin-5-yl)acetamide], the inhibition at 10 µM stood at 93%.

Take `O=C(Cc1cccc2nccn12)Nc1ccc(OC(F)(F)F)c(F)c1` [Example 14, N-(3-fluoro-4-(trifluoromethoxy)phenyl)-2-(imidazo[1,2-a]pyridin-5-yl) acetamide]: the inhibition at 10 µM was 92%.

For the compound `O=C(Cc1cccc2nccn12)Nc1ccc(OC(F)F)c(F)c1` [Example 17, N-(4-(difluoromethoxy)-3-fluorophenyl)-2-(imidazo[1,2-a]pyridin-5-yl)acetamide], the inhibition at 10 µM was 93%.

For the compound `CCc1ccc(NC(=O)Cc2cccc3nccn23)nc1` [Example 95, N-(5-ethylpyridin-2-yl)-2-(imidazo[1,2-a]pyridin-5-yl)acetamide], the inhibition at 10 µM is 76%.

Take `O=C(Cc1c(Cl)ccc2nccn12)Nc1ccc(OC(F)(F)F)cc1` [Example 91, 2-(6-chloroimidazo[1,2-a]pyridin-5-yl)-N-(4-(trifluoromethoxy)-phenyl)acetamide]: the inhibition at 10 µM was 91%.

With `O=C(Cc1cccc2nccn12)Nc1ccc(OCC(F)(F)F)cc1` [Example 38, 2-(imidazo[1,2-a]pyridin-5-yl)-N-(4-(2,2,2-trifluoroethoxy)phenyl)-acetamide], the inhibition at 10 µM came out at 82%.

`O=C(Cc1cccc2nccn12)Nc1cnc(C(F)(F)F)nc1` [Example 47, 2-(imidazo[1,2-a]pyridin-5-yl)-N-(2-(trifluoromethyl)-pyrimidin-5-yl)acetamide]: the inhibition at 10 µM is 52%.

Consider `O=C(Cc1cccc2nccn12)Nc1cc(F)c(F)c(F)c1` [Example 9, 2-(imidazo[1,2-a]pyridin-5-yl)-N-(3,4,5-trifluorophenyl)acetamide], for which the inhibition at 10 µM was determined as 87%.

Consider `O=C(Cc1cccc2nccn12)Nc1ccc(S(F)(F)(F)(F)F)cc1` [Example 62, 2-(imidazo[1,2-a]pyridin-5-yl)-N-(4-(pentafluoro-λ^6-sulfanyl)phenyl)-acetamide], for which the inhibition at 10 µM stood at 82%.

Consider `O=C(Cc1cccc2nccn12)Nc1ccc(F)c(C(F)F)c1` [Example 21, N-(3-(difluoromethyl)-4-fluorophenyl)-2-(imidazo[1,2-a]pyridin-5-yl)acetamide], for which the inhibition at 10 µM came to 56%.

As to `CC(C(=O)Nc1ccc(OC(F)(F)F)cc1)c1cccc2nccn12` (stereo not shown) [Example 84, 2-(imidazo[1,2-a]pyridin-5-yl)-N-(4-(trifluoromethoxy)-phenyl)propanamide], the inhibition at 10 µM is 94%.

In the case of `O=C(Cc1cccc2nccn12)Nc1ccc(Cl)cc1` [Example 33, N-(4-chlorophenyl)-2-(imidazo[1,2-a]pyridin-5-yl)acetamide], the inhibition at 10 µM stood at 92%.

`Cc1ccc2nccn2c1CC(=O)Nc1ccc(C(F)(F)F)cc1` [Example 87, 2-(6-methylimidazo[1,2-a]pyridin-5-yl)-N-(4-(trifluoromethyl)phenyl)-acetamide]: the inhibition at 10 µM is 93%.

For `Cc1ccc(NC(=O)Cc2cccc3nccn23)cc1F` [Example 15, N-(3-fluoro-4-methylphenyl)-2-(imidazo[1,2-a]pyridin-5-yl)acetamide], the inhibition at 10 µM stood at 91%.

Regarding `O=C(Cc1cccc2nccn12)Nc1ccc(F)cc1` [Example 32, N-(4-fluorophenyl)-2-(imidazo[1,2-a]pyridin-5-yl)acetamide], the inhibition at 10 µM stood at 83%.

As for `CCOc1ccc(NC(=O)Cc2cccc3nccn23)cc1F` [Example 18, N-(4-ethoxy-3-fluorophenyl)-2-(imidazo[1,2-a]pyridin-5-yl)acetamide], the inhibition at 10 µM is 91%.

Regarding `CCCc1ccc(NC(=O)Cc2cccc3nccn23)cc1` [Example 10, 2-(imidazo[1,2-a]pyridin-5-yl)-N-(4-propylphenyl)acetamide], the inhibition at 10 µM stood at 91%.

`O=C(Cc1cccc2nccn12)Nc1ccc(I)c(F)c1` [Example 82, N-(3-fluoro-4-iodophenyl)-2-(imidazo[1,2-a]pyridin-5-yl)acetamide]: the inhibition at 10 µM amounted to 94%.

As for `O=C(Cc1ccc(F)c2nccn12)Nc1ccc(OC(F)(F)F)cc1` [Example 94, 2-(8-fluoroimidazo[1,2-a]pyridin-5-yl)-N-(4-(trifluoromethoxy)-phenyl)acetamide], the inhibition at 10 µM came to 85%.

A further assay concerns NMDA receptor.
Experiment: not given
The settings on record: continuous intravenous administration; cited from earlier work.
`CNC1(c2ccccc2Cl)CCCCC1=O` (stereo not shown) [ketamine]: the “depression symptom accompanying major depression and bipolar disorder” value was “improves depression symptom accompanying major depression and bipolar disorder rapidly and in a sustained manner”.

A further assay concerns the target T2, NMDA receptor containing the NR2B subunit (Homo sapiens, UniProt Q05586+Q13224).
Experiment: not given
To be noted: continuous intravenous administration; cited from earlier work.
With `C[C@@H]([C@@H](O)c1ccc(O)cc1)N1CCC(O)(c2ccccc2)CC1` [CP-101, 606], the treatment resistant-depression symptom entry was “significantly improves treatment resistant-depression symptom”.

In a further assay the target is NMDA receptor containing the NR2B subunit (Rattus norvegicus, UniProt P35439+Q00960).
Chain of NMDA receptor containing the NR2B subunit (Rattus norvegicus, UniProt P35439+Q00960) (Q00960 27-1482, other chains not shown): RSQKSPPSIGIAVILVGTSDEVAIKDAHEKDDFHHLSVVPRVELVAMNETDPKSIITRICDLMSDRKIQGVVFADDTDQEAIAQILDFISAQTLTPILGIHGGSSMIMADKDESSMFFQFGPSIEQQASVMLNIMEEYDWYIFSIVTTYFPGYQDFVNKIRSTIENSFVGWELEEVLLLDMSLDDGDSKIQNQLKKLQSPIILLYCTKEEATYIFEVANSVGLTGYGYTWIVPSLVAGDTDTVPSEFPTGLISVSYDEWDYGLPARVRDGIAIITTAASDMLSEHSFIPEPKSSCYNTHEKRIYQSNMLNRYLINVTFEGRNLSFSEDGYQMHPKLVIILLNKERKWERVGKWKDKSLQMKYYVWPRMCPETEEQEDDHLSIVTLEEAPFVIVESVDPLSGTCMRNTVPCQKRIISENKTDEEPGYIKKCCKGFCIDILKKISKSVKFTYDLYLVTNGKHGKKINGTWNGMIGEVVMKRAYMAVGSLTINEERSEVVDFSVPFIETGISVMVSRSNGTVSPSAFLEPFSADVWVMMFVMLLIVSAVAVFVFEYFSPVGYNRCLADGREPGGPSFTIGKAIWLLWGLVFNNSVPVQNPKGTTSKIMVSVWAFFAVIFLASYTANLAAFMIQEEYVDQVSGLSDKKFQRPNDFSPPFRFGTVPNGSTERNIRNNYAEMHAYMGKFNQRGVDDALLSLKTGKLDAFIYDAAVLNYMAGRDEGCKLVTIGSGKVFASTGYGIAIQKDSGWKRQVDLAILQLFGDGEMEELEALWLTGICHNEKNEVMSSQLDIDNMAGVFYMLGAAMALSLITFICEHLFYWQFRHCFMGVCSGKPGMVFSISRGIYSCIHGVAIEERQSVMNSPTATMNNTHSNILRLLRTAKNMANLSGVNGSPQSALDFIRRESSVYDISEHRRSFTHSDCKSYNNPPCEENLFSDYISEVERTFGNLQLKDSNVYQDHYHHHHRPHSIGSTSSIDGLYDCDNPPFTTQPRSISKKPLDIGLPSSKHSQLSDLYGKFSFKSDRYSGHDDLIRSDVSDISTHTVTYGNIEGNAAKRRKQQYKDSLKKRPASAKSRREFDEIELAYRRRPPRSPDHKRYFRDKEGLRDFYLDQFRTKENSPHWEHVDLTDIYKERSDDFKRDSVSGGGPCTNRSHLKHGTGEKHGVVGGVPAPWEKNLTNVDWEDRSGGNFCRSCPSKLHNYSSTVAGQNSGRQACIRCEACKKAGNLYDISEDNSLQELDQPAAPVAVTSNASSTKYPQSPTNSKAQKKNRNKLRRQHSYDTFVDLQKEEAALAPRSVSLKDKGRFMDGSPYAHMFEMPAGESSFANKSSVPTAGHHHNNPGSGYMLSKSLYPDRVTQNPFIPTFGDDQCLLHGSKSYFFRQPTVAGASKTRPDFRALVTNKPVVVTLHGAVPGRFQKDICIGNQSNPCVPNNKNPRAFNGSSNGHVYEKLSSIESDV
Experiment: not given
To be noted: rodents; cited from earlier work.
Turning to `C[C@@H](CN1CCC(Cc2ccccc2)CC1)[C@@H](O)c1ccc(O)cc1` [Ro25-6981], the “number of occurrence and depth of cortical spreading depression” value was “suppress the number of occurrence and the depth of cortical spreading depression”.

Take `C[C@@H]([C@@H](O)c1ccc(O)cc1)N1CCC(O)(c2ccccc2)CC1` [CP-101, 606]: the “number of occurrence and depth of cortical spreading depression” value was “suppress the number of occurrence and the depth of cortical spreading depression”.

For a further assay, the target named is T2, NMDA receptor containing the NR2B subunit.
Experiment: not given
The settings on record: in vivo; cited from earlier work.
In the case of `CC(C(O)c1ccc(O)cc1)N1CCC(Cc2ccccc2)CC1` (stereo not shown) [Ifenprodil], the pain sense threshold entry is “pain sense threshold increases”.

The next assay deals with NMDA receptor.
Experiment: not given
The settings on record: in vivo; cited from earlier work.
On to `CC12CC3CC(C)(C1)CC(N)(C3)C2` [memantine], for which the “peripheral symptoms of dementia” value is reported as “partially improves peripheral symptoms of dementia”.
